Results from patent US20250345458A1, “COMPLEXING AGENT SALT FORMULATIONS OF PHARMACEUTICAL COMPOUNDS AT LOW STOICHIOMETRIC RATIOS” (Bexson Biomedical, Inc., priority 2022, published 2025).
Entries after “also recorded” stand apart in the source; their conditions may differ. Counter-ions that a name gives are not always drawn.

Experiments:
[1] = cited from earlier work
[2] = in water, cited from earlier work
[3] = literature value; cited from earlier work
[4] = Dissolution of API freebase in aqueous CapAcid / Captisol solutions at defined API:CapAcid ratios, visual inspection and NaOH titration
[5] = cited from earlier work; remark: listed apart in the source
[6] = Visual dissolution / precipitation of API free base-CapAcid formulations at stated API:CapAcid ratios; type: physicochemical
[7] = pH of API formulations (pH meter); type: physicochemical; conditions: for final pH: after 2M NaOH
[8] = Concentration test of rimantadine HCl in water; type: physicochemical
Experimental: A solution of 50 mg/mL rimantadine HCl, FB equivalents, (120.3 mg, 0.56 mmol), was prepared by adding 1.7 mL of HPLC grade water and an addition of a solution of benzethonium chloride (20 μL, […], 0.01% final concentration). […] It was diluted until it did dissolve, which took a total of 4.6 mL of HPLC (including the initial 1.7 mL). The solution was left to stir overnight. The solution was diluted to 5 mL, making the final concentration 20 mg/mL. The pH was 6.83 and the solution was filtered through a 0.20 micron syringe filter. The osmolality was 205 mOsm/kg.
A separate test was performed on another 50 mg/mL solution of rimantadine HCl, FB equivalents (60.2 mg, 0.28 mmol), dissolved in 800 μL of HPLC grade water and an addition of a solution of benzethonium chloride (10 μL, 1 mg/mL, 0.01% final concentration).

[9] = Osmolality of API formulations (micro osmometer, triplicate); type: physicochemical; conditions: concentration test solution diluted to 20 mg/mL, with benzethonium chloride
[10] = API-CapAcid salts prepared in ethanol, then 70 mg of solid added to 1 mL water (visual); type: physicochemical
Experimental: The resulting solid API-CapAcid salts were then obtained as solids by evaporation of the ethanol, followed by lyophilization.
In a scintillation vial, a solution of API FB (100 mg) and CapAcid (1 molar equivalent, moisture corrected) was prepared by dissolving Cap Acid in 200 proof ethanol (5 mL) and then adding the freebase API. […] Whether or not the freebase dissolved after the second addition of ethanol, the initial pH, prior to titration, was recorded. The vial was then wrapped in foil and left uncovered in the hood to allow the ethanol to evaporate. After the ethanol fully evaporated, a small amount of HPLC grade water (3-5 mL) was added to each to see if the product would dissolve or become a suspension in the water. The solution was then lyophilized to remove the water. The product was ground with a stir rod and 70±0.1 mg was added to 1 mL of water to see if it would dissolve.

For CC(=O)[C@H]1CC[C@H]2[C@@H]3CC[C@H]4C[C@H](O)CC[C@]4(C)[C@H]3CC[C@]12C [Brexanolone], the oral bioavailability [1] is given as “poor”.
For CCOC(=O)c1ncn2c1CN(C)C(=O)c1cc(F)ccc1-2 [Flumazenil], the “Reported Freebase Solubility” value ([2]; vendor or literature value) is given as 1.2 mg/mL, the pKa [3] is given as 2.87^21 and the “Successful in a 70 mg/mL API-CapAcid Formulation (Y/N)” value ([4]; water, 70 mg/mL FB) is given as “unsuccessful”.
For CO[C@H]1C[C@@H]2CC[C@@H](C)[C@@](O)(O2)C(=O)C(=O)N2CCCC[C@H]2C(=O)O[C@H]([C@H](C)C[C@@H]2CC[C@@H](O)[C@H](OC)C2)CC(=O)[C@H](C)/C=C(\C)[C@@H](O)[C@@H](OC)C(=O)[C@H](C)C[C@H](C)/C=C/C=C/C=C/1C [Rapamycin, rapamycin], the “reported strongest acidic pKa” value [5] is given as 9.96 and the “strongest basic pKa” value [5] is given as −3.
For CC(N)C12CC3CC(CC(C3)C1)C2 (stereo not shown) [Rimantadine HCl], the “dissolution state of the formulation” value ([6]; HCl) was “fully dissolved; also recorded: incompletely dissolved”, the pH ([7]; concentration test solution diluted to 20 mg/mL, with benzethonium chloride) was 6.83 and the “dissolution at 50 mg/mL, FB equivalents” value ([8]; HPLC grade water with 0.01% benzethonium chloride) was “did not dissolve”. The solubility ([8]; pH 6.83, aqueous with cosolvent or surfactant or cyclodextrin, thermodynamic from solid, HPLC grade water, stirred overnight, read-out: concentration at which the salt was soluble in water (FB equivalents)) was 20 mg/mL and the Osmolality [9] was 205 mOsm/kg.
For CCCN(CCc1cccs1)[C@H]1CCc2c(O)cccc2C1 [rotigotine], the “solubility compared to higher API:captisol ratio” value ([6]; 1:1 ratio to captisol compared to 2:1 ratio) was “superior solubility”, the “appearance at higher API:captisol ratio” value ([6]; 2:1 ratio to captisol) was “precipitation” and the “pH of the solution before titration” value ([7]; 1:1 ratio of API to CapAcid) was 0.93. The “final pH” value ([7]; 1:1 ratio of API to CapAcid) was 5.49, the “pH of the solution before titration” value ([7]; 2:1 ratio of API to CapAcid) was 1.66 and the “final pH” value ([7]; 2:1 ratio of API to CapAcid) was 5.51. The “pH of the ethanol solution prior to titration” value ([10]; API FB 100 mg + CapAcid 1 molar equivalent (H^+) in 10 mL 200 proof ethanol) was 5.63, the “dissolution of 70 mg of the ethanol-prepared API-CapAcid solid in 1 mL water” value ([10]; visual, vortexed) was “did not dissolve in water” and the “Reported Salt Solubility” value [2] was 3.51 mg/mL^17. For the same molecule, the “pKa (amine)” value [3] was 10.97, the “pKa (phenol)” value [3] was 10.03 and the “concentration (FB equivalents) at which the freebase dissolved” value ([4]; 1:1 ratio of API to CapAcid (relative to the cyclodextrin), water) was 10000 µg/mL. For the same molecule, the “concentration (FB equivalents) at which the freebase dissolved” value ([4]; 2:1 ratio of API to CapAcid (relative to the cyclodextrin), water) was 3000 µg/mL and the “dissolution by visual inspection” value ([4]; 2:1 ratio of API to CapAcid, 100 mg FB in 30 mL water (3 mg/mL)) was “most of the FB dissolved”.
